# Laboratory results as given in patent US20120214862A1, “MODULATION OF FACTOR 7 EXPRESSION” (ISIS Pharmaceuticals, Inc., priority 2009, published 2012).
# In the oligonucleotide strings, read from the 5' end, every base follows the letter of its sugar. An asterisk marks phosphorothioate; unmarked linkages are phosphodiester. Other units and linkages are bracketed, terminal groups are in braces. A string of capitals states the bases alone. e = 2'-O-(2-methoxyethyl) (MOE); [5mC] = 5-methylcytosine; d = 2'-deoxy (DNA)
# Tested on: human Factor 7 mRNA
# Assay: Inhibition of human Factor 7 mRNA by 2-10-2 MOE shortmers in HepB3 cells, electroporation, 1,000 nM
# Format: cell-based
# Settings: electroporation, 1,000 nM oligonucleotide, approximately 24 hours, relative to untreated control cells
# Text: Short antisense oligonucleotides (shortmers) were designed to target a Factor 7 nucleic acid. The shortmers in Table 17 were designed as 2-10-2 MOE gapmers. The gapmers are 14 nucleotides in length, wherein the central gap segment is comprised of 10 2′-deoxynucleotides and is flanked on both sides (in the 5′ and 3′ directions) by wings comprising 2 nucleotides each. Each nucleotide in the 5′ wing segment and each nucleotide in the 3′ wing segment has a 2′-MOE modification. The internucleoside linkages throughout each gapmer are phosphorothioate (P═S) linkages. All cytidine residues throughout each gapmer are 5-methylcytidines.
# Shortmers were evaluated for their ability to reduce human Factor 7 mRNA in HepB3 cells and compared with one 5-10-5 chimeric oligonucleotide from Table 16, ISIS 407939. HepB3 cells at a density of 20,000 cells per well in a 96-well plate were transfected using electroporation with 1,000 nM of antisense oligonucleotide. After a treatment period of approximately 24 hours, RNA was isolated from the cells and Factor 7 mRNA levels were measured by real-time RT-PCR, as described herein. Factor 7 mRNA levels were adjusted according to total RNA content as measured by RIBOGREEN®. Results are presented in Table 17 as percent inhibition of Factor 7 mRNA, relative to untreated control cells. ISIS 407939 is the first oligonucleotide in […] to which the shortmers were compared, and is marked by an asterisk (*).
row,Substance,% inhibition of human Factor 7 mRNA
1,435826 (antisense eA*eA*dG*dT*dG*dG*d[5mC]*dT*dG*dG*d[5mC]*dT*eG*eA) [compound 435826],27%
2,435480 (antisense eG*eG*dT*d[5mC]*dA*dT*d[5mC]*dA*dG*d[5mC]*d[5mC]*dG*eG*eG) [compound 435480],53%
3,435724 (antisense e[5mC]*eT*dG*dA*dG*dG*d[5mC]*d[5mC]*dA*dG*d[5mC]*dA*eG*eA) [compound 435724],52%
4,435792 (antisense eT*eG*d[5mC]*dT*dG*dA*dA*dG*dA*dA*dA*d[5mC]*eT*eG) [compound 435792],9%
5,435814 (antisense eT*eG*dA*d[5mC]*dG*dA*dG*dA*dG*dG*dA*d[5mC]*e[5mC]*eA) [compound 435814],31%
6,435499 (antisense e[5mC]*eT*dG*dG*dG*dA*dG*dA*d[5mC]*d[5mC]*d[5mC]*dT*eG*eG) [compound 435499],59%
7,435669 (antisense eG*eG*dA*d[5mC]*d[5mC]*dT*dG*d[5mC]*d[5mC]*dA*dT*dG*eG*eA) [compound 435669],36%
8,435768 (antisense eG*e[5mC]*d[5mC]*dT*dG*dG*dA*dT*dG*d[5mC]*dT*dG*eG*eT) [compound 435768],75%
9,435788 (antisense e[5mC]*e[5mC]*dT*dG*dT*dG*dA*dG*dT*dG*dT*dG*eA*eG) [compound 435788],20%
10,435751 (antisense e[5mC]*eT*dT*dG*d[5mC]*d[5mC]*dA*dG*dG*dT*d[5mC]*d[5mC]*eT*e[5mC]) [compound 435751],28%
11,435762 (antisense e[5mC]*eA*dG*dG*dT*dG*dT*dT*dA*dA*dG*dG*eT*eG) [compound 435762],0%
12,435750 (antisense e[5mC]*eA*d[5mC]*dT*dG*d[5mC]*dA*dG*d[5mC]*d[5mC]*dA*dG*eG*eG) [compound 435750],14%
13,435837 (antisense e[5mC]*eT*d[5mC]*dG*d[5mC]*d[5mC]*dT*dG*dG*dA*dA*dG*eG*eA) [compound 435837],37%
14,435759 (antisense eG*eA*dG*d[5mC]*d[5mC]*dA*d[5mC]*dA*dG*dA*dG*d[5mC]*e[5mC]*eT) [compound 435759],11%
15,435486 (antisense eG*eT*d[5mC]*d[5mC]*dT*dG*dG*dG*dT*d[5mC]*dA*dT*e[5mC]*eA) [compound 435486],64%
16,435829 (antisense eG*eG*dG*dT*dA*dG*dA*d[5mC]*d[5mC]*d[5mC]*dT*d[5mC]*eA*eG) [compound 435829],18%
17,435690 (antisense eG*eT*d[5mC]*d[5mC]*dG*dT*dT*d[5mC]*dG*dG*dG*d[5mC]*eA*eG) [compound 435690],55%
18,435645 (antisense eG*eG*dA*dG*d[5mC]*dT*dG*dG*dT*d[5mC]*d[5mC]*dT*eT*eG) [compound 435645],44%
19,435774 (antisense eG*eT*d[5mC]*d[5mC]*d[5mC]*dA*dG*dG*dG*dA*dA*dG*eG*e[5mC]) [compound 435774],17%

row,Substance,% inhibition of human Factor 7 mRNA
1,435765 (antisense e[5mC]*eA*dA*dA*dG*dT*dT*d[5mC]*dT*d[5mC]*dT*dG*e[5mC]*e[5mC]) [compound 435765],1%
2,435805 (antisense eT*eG*dA*dA*dT*dT*dA*d[5mC]*dT*dG*dA*dA*e[5mC]*e[5mC]) [compound 435805],0%
3,435799 (antisense e[5mC]*eT*dG*dG*dT*d[5mC]*d[5mC]*d[5mC]*d[5mC]*dA*dT*d[5mC]*eT*eG) [compound 435799],33%
4,435746 (antisense eA*eT*dT*dG*dA*d[5mC]*dA*dA*dG*dG*dG*d[5mC]*eT*eG) [compound 435746],32%
5,435697 (antisense eA*eG*dT*dA*dG*d[5mC]*d[5mC]*dG*dG*d[5mC]*dA*d[5mC]*eA*eG) [compound 435697],53%
6,435735 (antisense eT*eG*dG*dT*dG*dA*dT*dG*d[5mC]*dT*dT*d[5mC]*eT*eG) [compound 435735],81%
7,435636 (antisense eG*eA*dG*dA*d[5mC]*d[5mC]*dA*dT*dG*dA*dT*dG*eA*eA) [compound 435636],13%
8,435671 (antisense eT*e[5mC]*dA*d[5mC]*d[5mC]*dA*dA*d[5mC]*dA*dA*d[5mC]*dA*eG*eG) [compound 435671],28%
9,435773 (antisense e[5mC]*eA*dG*dG*dG*dA*dA*d[5mC]*dA*d[5mC]*d[5mC]*d[5mC]*eT*e[5mC]) [compound 435773],57%
10,435674 (antisense eA*eA*dA*d[5mC]*dA*dG*dT*dG*dG*dG*d[5mC]*d[5mC]*eG*e[5mC]) [compound 435674],34%
11,435842 (antisense eA*eT*dT*dT*d[5mC]*d[5mC]*d[5mC]*dA*dT*dT*dG*dG*e[5mC]*eA) [compound 435842],0%
12,435748 (antisense eT*e[5mC]*d[5mC]*d[5mC]*dA*dG*dG*dG*dT*d[5mC]*dT*d[5mC]*eT*eG) [compound 435748],18%
13,435823 (antisense eT*eG*dA*dG*dT*d[5mC]*d[5mC]*d[5mC]*dA*dG*dG*d[5mC]*eT*eG) [compound 435823],41%
14,435734 (antisense eA*eT*dG*d[5mC]*dT*dT*d[5mC]*dT*dG*dA*dA*dT*eT*eG) [compound 435734],16%
15,435777 (antisense e[5mC]*eT*dG*dA*dG*dG*dA*dT*dG*d[5mC]*dA*dG*eG*e[5mC]) [compound 435777],53%
16,435789 (antisense e[5mC]*eA*dT*dG*dT*dT*dA*dG*d[5mC]*d[5mC]*dT*dT*eT*eG) [compound 435789],3%
17,435839 (antisense eG*eG*dT*d[5mC]*dA*dG*d[5mC]*dT*dG*dG*dT*d[5mC]*eT*eG) [compound 435839],14%
18,435498 (antisense eT*eG*dG*dG*dA*dG*dA*d[5mC]*d[5mC]*d[5mC]*dT*dG*eG*eT) [compound 435498],37%
19,435752 (antisense eT*eG*d[5mC]*dA*dG*d[5mC]*dT*dT*dG*d[5mC]*d[5mC]*dA*eG*eG) [compound 435752],12%
